Assay results as given in US12570687B2, “Triterpenoid compounds, pharmaceutical compositions thereof, and their use for treating a nuclear receptor subfamily 4 group a member 1-mediated disease” (NUCMITO PHARMACEUTICALS COMPANY LIMITED, priority 2019, dated 2026).

Legend:
Format in all cases: cell-based
[1] = tested on: MDA-MB-231 (breast cancer); assay: MTT antiproliferative assay, MDA-MB-231; conditions: Homo sapiens, MDA-MB-231, 10 μM, 48 or 72 h, read-out: inhibition of cell growth, MDA-MB-231
Description: (§1) The antiproliferative activity of a test compound was determined in cell lines: MDA-MB-231 (breast cancer), HepG2 (liver cancer), SW620 (colon cancer), A375 (malignant melanoma), A431 (epidermoid carcinoma), A549 (lung adenocarcinoma), and HeLa ([…]). MDA-MB-231, HepG2, SW480, SW620, A375, and A431 cells were cultured in Dulbecco's modified Eagle's medium (DMEM) containing 10% fetal bovine serum (FBS). HeLa cells were cultured in MEM/EBSS (MEM) containing 10% FBS. A549 cells were maintained in Kaighn's modification of Ham's F-12 medium containing 10% FBS. The colorimetric MTT (3-(4,5-dimethylthiazol-2-yl)-2,5-diphenyltetrazolium bromide) assay was used to measure the cell viability of different cells following treatment with the test compound.
(§2) Briefly cells were seeded in a 96 well plate at a density of 2,000-5,000 cells/well. Following attachment, the cells were treated with the test compound in media at various concentrations ranging from 0.137 to 100 μM or at a single concentration of 10 μM. After the cells were incubated at 37° C. for 48 or 72 h, MTT (20 μL, 5 mg/mL in PBS) was added to each well and the cells were incubated for another 4 h at 37° C. The supernatant was removed carefully and 150 μL of DMSO was added to each well to dissolve the MTT formazan crystals. The plate was shaken for 15-20 min and the absorbance value of each well was determined using a multi-well plate reader at 490 nm. The wells treated with DMSO were taken as a vehicle control. Data were also obtained similarly for all the replicates and the percentage viability was determined with respect to the DMSO-treated cells. The results are summarized in Table 1 below, wherein A represents no less than 80% inhibition of cell growth at 10 μM; B represents no less than 50% but less than 80% inhibition of cell growth at 10 μM; C represents no less than 30% but less than 50% inhibition of cell growth at 10 μM; and D represents less than 30% inhibition of cell growth at 10 μM.

HepG2 (liver cancer) = assay: MTT antiproliferative assay, HepG2; conditions: Homo sapiens, HepG2, 10 μM, 48 or 72 h, read-out: inhibition of cell growth, HepG2
Description: as §1, §2

HeLa (ovarian cancer) = assay: MTT antiproliferative assay, HeLa; conditions: Homo sapiens, 48 or 72 h, read-out: inhibition of cell growth, HELA
Description: as §1, §2

[2] = tested on: A549 (lung adenocarcinoma); assay: MTT antiproliferative assay, A549; conditions: Homo sapiens, A549, 10 μM, 48 or 72 h, read-out: inhibition of cell growth, A549
Description: as §1, §2

SW620 (colon cancer) = assay: MTT antiproliferative assay, SW620; conditions: Homo sapiens, SW-620, SW620, 10 μM, 48 or 72 h, read-out: inhibition of cell growth, SW620
Description: as §1, §2

[3] = tested on: A375 (malignant melanoma); assay: MTT antiproliferative assay, A375; conditions: Homo sapiens, A-375, A375, 10 μM, 48 or 72 h, read-out: inhibition of cell growth, A375
Description: as §1, §2

[4] = tested on: A431 (epidermoid carcinoma); assay: MTT antiproliferative assay, A431; conditions: Homo sapiens, A-431, A431, 10 μM, 48 or 72 h, read-out: inhibition of cell growth, A431
Description: as §1, §2

| Structure (SMILES) | inhibition at 10 µM [1] | inhibition at 10 µM (HepG2 (liver cancer)) | inhibition at 10 µM (HeLa (ovarian cancer)) | inhibition at 10 µM [2] | inhibition at 10 µM (SW620 (colon cancer)) | inhibition at 10 µM [3] | inhibition at 10 µM [4] |
| --- | --- | --- | --- | --- | --- | --- | --- |
| COC1(C)C2=CC=C3[C@@](C)(CC[C@@]4(C)[C@@H]5C[C@](C)(C(=O)O)CC[C@]5(C)CC[C@]34C)C2=CC(=O)C1CC#N (stereo in doubt) [Compound A38, (2R,4aS,6aS,9S,12bR,14aS,14bR)-10-(cyanomethyl)-9-methoxy-2,4a,6a,9,12b,14a-hexamethyl-11-oxo-1,2,3,4,4a,5,6,6a,9,10,11,12b,13,14,14a,14b-hexadecahydropicene-2-carboxylic acid] | 30 to 50% | < 30% | ≥ 80% | < 30% | 50 to 80% | 30 to 50% | 30 to 50% |
| [2H]C([2H])([2H])O[C@]1(C)C(=O)C(=O)C=C2C1=CC=C1[C@@]2(C)CC[C@@]2(C)[C@@H]3C[C@](C)(C(=O)O)CC[C@]3(C)CC[C@]12C [Compound A2, (2R,4aS,6aS,9S,12bR,14aS,14bR)-9-(methoxy-d3)-2,4a,6a,9,12b,14a-hexamethyl-10,11-dioxo-1,2,3,4,4a,5,6,6a,9,10,11,12b,13,14,14a,14b-hexadecahydropicene-2-carboxylic acid] | 50 to 80% | 50 to 80% | ≥ 80% | 30 to 50% | 30 to 50% | 30 to 50% | 50 to 80% |
| CC(=O)OC1(C)C(=O)C(=O)C=C2C1=CC=C1[C@@]2(C)CC[C@@]2(C)[C@@H]3C[C@](C)(C(=O)O)CC[C@]3(C)CC[C@]12C (stereo partly drawn) [Compound A3, (2R,4aS,6aS,12bR,14aS,14bR)-9-(acetyloxy)-2,4a,6a,9,12b,14a-hexamethyl-10,11-dioxo-1,2,3,4,4a,5,6,6a,9,10,11,12b,13,14,14a,14b-hexadecahydropicene-2-carboxylic acid] | < 30% | < 30% | 50 to 80% | 50 to 80% | < 30% | < 30% | ≥ 80% |
| COC(=O)[C@]1(C)CC[C@]2(C)CC[C@]3(C)C4=CC=C5C(=CC(=O)C(=O)C5(C)c5c[nH]c6ccccc56)[C@]4(C)CC[C@@]3(C)[C@@H]2C1 (stereo partly drawn) [Compound A4, methyl (2R,4aS,6aS,12bR,14aS,14bR)-9-(1H-indol-3-yl)-2,4a,6a,9,12b,14a-hexamethyl-10,11-dioxo-1,2,3,4,4a,5,6,6a,9,10,11,12b,13,14,14a,14b-hexadecahydropicene-2-carboxylate] | 30 to 50% | 50 to 80% | ≥ 80% | 50 to 80% | 50 to 80% | 50 to 80% | ≥ 80% |
| COC(=O)[C@]1(C)CC[C@]2(C)CC[C@]3(C)C4=CC=C5C(=CC(=O)C(=O)[C@@]5(C)OC)[C@]4(C)CC[C@@]3(C)[C@@H]2C1 [Compound A5, methyl (2R,4aS,6aS,9S,12bR,14aS,14bR)-9-methoxy-2,4a,6a,9,12b,14a-hexamethyl-10,11-dioxo-1,2,3,4,4a,5,6,6a,9,10,11,12b,13,14,14a,14b-hexadecahydropicene-2-carboxylate] | ≥ 80% | ≥ 80% | ≥ 80% | 30 to 50% | 50 to 80% | 50 to 80% | ≥ 80% |
| CO[C@]1(C)C(=O)C(=O)C=C2C1=CC=C1[C@@]2(C)CC[C@@]2(C)[C@@H]3C[C@](C)(C(=O)On4nnc5ccccc54)CC[C@]3(C)CC[C@]12C [Compound A6, 1H-1,2,3-benzotriazol-1-yl (2R,4aS,6aS,9S,12bR,14aS,14bR)-9-methoxy-2,4a,6a,9,12b,14a-hexamethyl-10,11-dioxo-1,2,3,4,4a,5,6,6a,9,10,11,12b,13,14,14a,14b-hexadecahydropicene-2-carboxylate] | 50 to 80% | ≥ 80% | ≥ 80% | 50 to 80% | 50 to 80% | 30 to 50% | 50 to 80% |
| CO[C@]1(C)C(=O)C(=O)C=C2C1=CC=C1[C@@]2(C)CC[C@@]2(C)[C@@H]3C[C@](C)(C(=O)F)CC[C@]3(C)CC[C@]12C [Compound A8, (2R,4aS,6aS,9S,12bR,14aS,14bR)-9-methoxy-2,4a,6a,9,12b,14a-hexamethyl-10,11-dioxo-1,2,3,4,4a,5,6,6a,9,10,11,12b,13,14,14a,14b-hexadecahydropicene-2-carbonyl fluoride] | 50 to 80% | ≥ 80% | 50 to 80% | 50 to 80% | 50 to 80% | 30 to 50% | ≥ 80% |
| CCNC(=O)[C@]1(C)CC[C@]2(C)CC[C@]3(C)C4=CC=C5C(=CC(=O)C(=O)[C@@]5(C)OC)[C@]4(C)CC[C@@]3(C)[C@@H]2C1 [Compound A10, (2R,4aS,6aS,9S,12bR,14aS,14bR)—N-ethyl-9-methoxy-2,4a,6a,9,12b,14a-hexamethyl-10,11-dioxo-1,2,3,4,4a,5,6,6a,9,10,11,12b,13,14,14a,14b-hexadecahydropicene-2-carboxamide] | ≥ 80% | 50 to 80% | ≥ 80% | 30 to 50% | 50 to 80% | 30 to 50% | 50 to 80% |
| CO[C@]1(C)C(=O)C(=O)C=C2C1=CC=C1[C@@]2(C)CC[C@@]2(C)[C@@H]3C[C@](C)(C(=O)OCc4ccccc4)CC[C@]3(C)CC[C@]12C [Compound A11, benzyl (2R,4aS,6aS,9S,12bR,14aS,14bR)-9-methoxy-2,4a,6a,9,12b,14a-hexamethyl-10,11-dioxo-1,2,3,4,4a,5,6,6a,9,10,11,12b,13,14,14a,14b-hexadecahydropicene-2-carboxylate] | ≥ 80% | ≥ 80% | ≥ 80% | < 30% | ≥ 80% | 50 to 80% | < 30% |
| CCCNC(=O)[C@]1(C)CC[C@]2(C)CC[C@]3(C)C4=CC=C5C(=CC(=O)C(=O)[C@@]5(C)OC)[C@]4(C)CC[C@@]3(C)[C@@H]2C1 [Compound A12, (2R,4aS,9S,6aS,12bR,14aS,14bR)—N-propyl-9-methoxy-2,4a,6a,9,12b,14a-hexamethyl-10,11-dioxo-1,2,3,4,4a,5,6,6a,9,10,11,12b,13,14,14a,14b-hexadecahydropicene-2-carboxamide] | 50 to 80% | ≥ 80% | ≥ 80% | ≥ 80% | 50 to 80% | 30 to 50% | ≥ 80% |
| CO[C@]1(C)C(=O)C(=O)C=C2C1=CC=C1[C@@]2(C)CC[C@@]2(C)[C@@H]3C[C@](C)(C(=O)N(C)C)CC[C@]3(C)CC[C@]12C [Compound A13, (2R,4aS,6aS,9S,12bR,14aS,14bR)-9-methoxy-N,N,2,4a,6a,9,12b,14a-octamethyl-10,11-dioxo-1,2,3,4,4a,5,6,6a,9,10,11,12b,13,14,14a,14b-hexadecahydropicene-2-carboxamide] | ≥ 80% | ≥ 80% | ≥ 80% | ≥ 80% | ≥ 80% | 30 to 50% | ≥ 80% |
| CO[C@]1(C)C(=O)C(=O)C=C2C1=CC=C1[C@@]2(C)CC[C@@]2(C)[C@@H]3C[C@](C)(CO)CC[C@]3(C)CC[C@]12C [Compound A14, (4S,6bS,8aS,11R,12aR,12bS,14aR)-11-(hydroxymethyl)-4-methoxy-4,6b,8a,11,12b,14a-hexamethyl-4,6b,7,8,8a,9,10,11,12,12a,12b,13,14,14a-tetradecahydropicene-2,3-dione] | < 30% | < 30% | 30 to 50% | < 30% | < 30% | < 30% | < 30% |
